Test results: US20080063704A1, “Stable gabapentin compositions” (priority 2004, published 2008)

Columns and labels:
Assay type in all cases: physicochemical
[1] = Pre-formulation excipient compatibility study: Appearance
Excerpt: (§1) All the ingredients were passed through 20 mesh screen and blended together. The results of all the pre-formulation compatibility studies are given in Tables 25 to 39, including comparative results for the drug substance (Table 39) and UK reference product (Table 38) as controls.
(§2) Aim: To carry out preformulation excipient compatibility studies for Gabapentin capsules
(§3) Binary mixtures to be evaluated (with and without water as necessary):
(§4) 1. Drug and diluents (1:0.5)
(§5) 2. Drug and lubricants(1:0.1)
(§6) 3. Drug and solubilizer (1:0.001)
(§7) 4. Proposed formulation from the in vitro formulation trials to confirm the extent of interactions and identify suitably stable formulations.
(§8) Where humidity controls are not available a defined amount of water may be added to the samples. Storage of samples was in petridishes and in stoppered glass vials.
(§9) The following tests were performed at each interval:
(§10) The following tests were performed at 14 and 28 day intervals.

[2] = Pre-formulation excipient compatibility study: HPLC assay for related substances
Excerpt: HPLC Assay for Related Substances
as §1, §2, §3, §4, §5, §6, §7
Significant degradation is defined as
1. >0.5% w/w formation of lactam degradation product at conditions up to 40° C./75% RH.
2. Formation of other degradants at levels >0.1% w/w.
3. Greater relative instability of mixture or formulation to Gabapentin drug substance and Neurotonin capsules.
as §8, §10
3. HPLC assay for related substances

[3] = Pre-formulation excipient compatibility study: HPLC assay
Excerpt: as §1, §2, §3, §4, §5, §6, §7, §8, §9
2. HPLC assay (as for HPLC related substances assay but calibrated for gabapentin resolution rather than for related substances)

## NCC1(CC(=O)O)CCCCC1 [Gabapentin]
[1]; 25° C./60% RH, 3 days
  Description: White
[1]; 25° C./60% RH, 7 days
  Description: White
[1]; 25° C./60% RH, 14 days
  Description: White
[1]; 25° C./60% RH, 28 days
  Description: White
[1]; 40° C./75% RH, 3 days
  Description: White
[1]; 40° C./75% RH, 7 days
  Description: White
[1]; 40° C./75% RH, 14 days
  Description: White
[1]; 40° C./75% RH, 28 days
  Description: White
[1]; 50° C., 3 days
  Description: White
[1]; 50° C., 7 days
  Description: White
[1]; 50° C., 14 days
  Description: White
[1]; 50° C., 28 days
  Description: White
[1]; Initial
  Description: White
[2]; 25° C./60% RH, 14 days
  Impurities a) Lactam content: Nil
  Impurities b) Single largest individual Impurities: Nil
  Impurities c) Total other Impurities: Nil
  Impurities d) Total Impurities: Nil
[2]; 25° C./60% RH, 28 days
  Impurities a) Lactam content: Nil
  Impurities b) Single largest individual Impurities: Nil
  Impurities c) Total other Impurities: Nil
  Impurities d) Total Impurities: Nil
[2]; 40° C./75% RH, 14 days
  Impurities a) Lactam content: Nil
  Impurities b) Single largest individual Impurities: Nil
  Impurities c) Total other Impurities: Nil
  Impurities d) Total Impurities: Nil
[2]; 40° C./75% RH, 28 days
  Impurities a) Lactam content: Nil
  Impurities b) Single largest individual Impurities: Nil
  Impurities c) Total other Impurities: Nil
  Impurities d) Total Impurities: Nil
[2]; 50° C., 14 days
  Impurities a) Lactam content: 0.004%
  Impurities b) Single largest individual Impurities: Nil
  Impurities c) Total other Impurities: Nil
  Impurities d) Total Impurities: Nil
[2]; 50° C., 28 days
  Impurities a) Lactam content: 0.004%
  Impurities b) Single largest individual Impurities: Nil
  Impurities c) Total other Impurities: Nil
  Impurities d) Total Impurities: Nil
[2]; Initial
  Impurities a) Lactam content: Nil
  Impurities b) Single largest individual Impurities: Nil
  Impurities c) Total other Impurities: Nil
  Impurities d) Total Impurities: Nil
[3]; 25° C./60% RH, 7 days
  Assay: 98.6%
[3]; 25° C./60% RH, 14 days
  Assay: 98.6%
[3]; 25° C./60% RH, 28 days
  Assay: 98.51%
[3]; 40° C./75% RH, 7 days
  Assay: 98.53%
[3]; 40° C./75% RH, 14 days
  Assay: 98.4%
[3]; 40° C./75% RH, 28 days
  Assay: 97.79%
[3]; 50° C., 7 days
  Assay: 98.5%
[3]; 50° C., 14 days
  Assay: 98.5%
[3]; 50° C., 28 days
  Assay: 98.1%
[3]; Initial
  Assay: 99.4%
